Source: publication PMC3933419, “Synthesis and Properties of a Selective Inhibitor of Homeodomain–Interacting Protein Kinase 2 (HIPK2)” (PLoS ONE, 2014)

What was measured:
Test in all cases: Kinase panel selectivity profiling
Type in all cases: biochemical
PAK5 = PAK5 (Homo sapiens, UniProt Q9P286); settings: TBID 1 μM, 125 kinase panel, read-out: % activity of the enzyme
Source text: (§1) The source of HIPK2 and of all of the other protein kinases used for specificity assays is as described elsewhere.
(§2) Conditions for the activity assays of all other protein kinases tested in selectivity experiments are as described or referenced in [9].

MPSK1 = MPSK1 (Homo sapiens, UniProt O75716); settings: TBID 1 μM, 125 kinase panel, read-out: % activity of the enzyme
Source text: as §1, §2

MLK1 = MLK1 (Homo sapiens, UniProt P80192); settings: TBID 1 μM, 125 kinase panel, read-out: % activity of the enzyme
Source text: as §1, §2

FGF-R1 = FGF-R1 (Homo sapiens, UniProt P11362); settings: TBID 1 μM, 125 kinase panel, read-out: % activity of the enzyme
Source text: as §1, §2

MAPKAP-K3 = MAPKAP-K3 (Homo sapiens, UniProt Q16644); settings: TBID 1 μM, 125 kinase panel, read-out: % activity of the enzyme
Chain of MAPKAP-K3 (Q16644 whole entry): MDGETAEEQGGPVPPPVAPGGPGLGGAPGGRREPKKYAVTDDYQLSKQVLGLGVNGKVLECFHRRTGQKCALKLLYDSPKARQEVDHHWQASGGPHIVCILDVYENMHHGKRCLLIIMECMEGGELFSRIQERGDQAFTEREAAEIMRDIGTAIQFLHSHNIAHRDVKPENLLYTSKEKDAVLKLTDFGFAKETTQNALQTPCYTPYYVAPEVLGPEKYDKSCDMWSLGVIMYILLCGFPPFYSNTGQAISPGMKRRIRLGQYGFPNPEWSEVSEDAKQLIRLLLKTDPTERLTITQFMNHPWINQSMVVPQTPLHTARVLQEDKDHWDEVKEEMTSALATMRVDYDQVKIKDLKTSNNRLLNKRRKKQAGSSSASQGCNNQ
Source text: as §1, §2

MELK = MELK (Homo sapiens, UniProt Q14680); settings: TBID 1 μM, 125 kinase panel, read-out: % activity of the enzyme
Chain of MELK (Q14680 whole entry): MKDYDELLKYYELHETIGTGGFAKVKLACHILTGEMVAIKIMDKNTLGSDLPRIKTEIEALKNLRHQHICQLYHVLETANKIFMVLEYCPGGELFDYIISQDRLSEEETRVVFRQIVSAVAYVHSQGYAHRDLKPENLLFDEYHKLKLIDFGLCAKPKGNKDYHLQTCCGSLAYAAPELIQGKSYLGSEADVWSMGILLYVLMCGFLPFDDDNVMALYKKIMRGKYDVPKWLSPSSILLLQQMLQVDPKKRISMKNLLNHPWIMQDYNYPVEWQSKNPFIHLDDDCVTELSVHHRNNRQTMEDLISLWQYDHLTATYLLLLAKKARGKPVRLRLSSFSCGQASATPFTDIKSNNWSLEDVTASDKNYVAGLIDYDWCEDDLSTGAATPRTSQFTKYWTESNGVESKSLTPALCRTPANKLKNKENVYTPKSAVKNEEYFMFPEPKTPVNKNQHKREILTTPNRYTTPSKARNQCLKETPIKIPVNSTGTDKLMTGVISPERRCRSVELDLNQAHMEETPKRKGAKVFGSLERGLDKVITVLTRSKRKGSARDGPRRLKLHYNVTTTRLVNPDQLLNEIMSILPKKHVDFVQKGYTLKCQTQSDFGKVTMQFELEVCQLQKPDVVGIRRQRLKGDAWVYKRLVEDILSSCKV
Source text: as §1, §2

YES1 = YES1 (Homo sapiens, UniProt P07947); settings: TBID 1 μM, 125 kinase panel, read-out: % activity of the enzyme
Source text: as §1, §2

Src = Src (Homo sapiens, UniProt P12931); settings: TBID 1 μM, 125 kinase panel, read-out: % activity of the enzyme
Source text: as §1, §2

MEKK1 = MEKK1 (Homo sapiens, UniProt Q13233); settings: TBID 1 μM, 125 kinase panel, read-out: % activity of the enzyme
Source text: as §1, §2

GSK3b = GSK3b (Homo sapiens, UniProt P49841); settings: TBID 1 μM, 125 kinase panel, read-out: % activity of the enzyme
Source text: as §1, §2

JNK1 = JNK1 (Homo sapiens, UniProt P45983); settings: TBID 1 μM, 125 kinase panel, read-out: % activity of the enzyme
Chain of JNK1 (P45983 whole entry): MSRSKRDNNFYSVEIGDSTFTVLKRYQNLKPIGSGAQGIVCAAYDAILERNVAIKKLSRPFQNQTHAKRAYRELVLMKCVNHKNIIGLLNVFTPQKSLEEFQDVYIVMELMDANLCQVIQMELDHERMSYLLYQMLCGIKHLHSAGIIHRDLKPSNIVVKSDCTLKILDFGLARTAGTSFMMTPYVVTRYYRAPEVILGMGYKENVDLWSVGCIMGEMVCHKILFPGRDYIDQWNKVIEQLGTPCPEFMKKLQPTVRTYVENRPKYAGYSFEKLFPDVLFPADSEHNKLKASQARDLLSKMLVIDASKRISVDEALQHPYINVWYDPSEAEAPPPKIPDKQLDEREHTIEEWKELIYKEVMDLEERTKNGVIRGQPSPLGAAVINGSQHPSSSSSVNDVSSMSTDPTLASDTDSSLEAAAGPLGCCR
Source text: as §1, §2

CAMKKb = CAMKKb (Homo sapiens, UniProt Q96RR4)
Chain of CAMKKb (Q96RR4 whole entry): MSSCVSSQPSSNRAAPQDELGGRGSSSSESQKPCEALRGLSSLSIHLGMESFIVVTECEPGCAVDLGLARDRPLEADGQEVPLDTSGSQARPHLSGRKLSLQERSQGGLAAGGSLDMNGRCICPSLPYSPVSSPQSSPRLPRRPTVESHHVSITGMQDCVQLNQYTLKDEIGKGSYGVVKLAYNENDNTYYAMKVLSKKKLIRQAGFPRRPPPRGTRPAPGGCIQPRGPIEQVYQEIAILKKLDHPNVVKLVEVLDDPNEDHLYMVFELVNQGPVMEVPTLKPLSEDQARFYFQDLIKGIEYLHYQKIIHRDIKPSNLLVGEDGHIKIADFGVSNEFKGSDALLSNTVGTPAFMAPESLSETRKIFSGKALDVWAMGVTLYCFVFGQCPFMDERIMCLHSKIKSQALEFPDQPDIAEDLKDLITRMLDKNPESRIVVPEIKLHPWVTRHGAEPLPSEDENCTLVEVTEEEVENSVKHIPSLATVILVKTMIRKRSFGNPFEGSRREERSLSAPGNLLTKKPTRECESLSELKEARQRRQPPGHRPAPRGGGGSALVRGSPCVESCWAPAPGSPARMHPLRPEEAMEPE
Source text: as §1, §2

ABL = ABL (Homo sapiens, UniProt P00519); settings: TBID 1 μM, 125 kinase panel, read-out: % activity of the enzyme
Source text: as §1, §2

MARK4 = MARK4 (Homo sapiens, UniProt Q96L34); settings: TBID 1 μM, 125 kinase panel, read-out: % activity of the enzyme
Source text: as §1, §2

SRPK1 = SRPK1 (Homo sapiens, UniProt Q96SB4); settings: TBID 1 μM, 125 kinase panel, read-out: % activity of the enzyme
Source text: as §1, §2

OSR1 = OSR1 (Homo sapiens, UniProt O95747); settings: TBID 1 μM, 125 kinase panel, read-out: % activity of the enzyme
Source text: as §1, §2

EPH-A2 = EPH-A2 (Homo sapiens, UniProt P29317); settings: TBID 1 μM, 125 kinase panel, read-out: % activity of the enzyme
Source text: as §1, §2

PDK1 = PDK1 (Homo sapiens, UniProt O15530); settings: TBID 1 μM, 125 kinase panel, read-out: % activity of the enzyme
Source text: as §1, §2

VEG-FR = VEG-FR (Homo sapiens, UniProt P17948); settings: TBID 1 μM, 125 kinase panel, read-out: % activity of the enzyme
Source text: as §1, §2

CK2 = CK2 (Homo sapiens, UniProt P68400)
Chain of CK2 (P68400 whole entry): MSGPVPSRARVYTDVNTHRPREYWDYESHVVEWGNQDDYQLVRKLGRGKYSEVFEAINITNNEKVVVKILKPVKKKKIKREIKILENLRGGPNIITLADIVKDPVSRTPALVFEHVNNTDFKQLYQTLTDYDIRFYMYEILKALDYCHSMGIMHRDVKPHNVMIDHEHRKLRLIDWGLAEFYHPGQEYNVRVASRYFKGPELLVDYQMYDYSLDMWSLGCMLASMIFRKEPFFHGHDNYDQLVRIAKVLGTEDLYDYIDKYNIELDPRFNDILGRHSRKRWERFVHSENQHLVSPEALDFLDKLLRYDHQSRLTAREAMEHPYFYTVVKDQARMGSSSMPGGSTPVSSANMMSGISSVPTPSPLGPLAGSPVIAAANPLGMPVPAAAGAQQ
Source text: as §1, §2

JAK2 = JAK2 (Homo sapiens, UniProt O60674); settings: TBID 1 μM, 125 kinase panel, read-out: % activity of the enzyme
Source text: as §1, §2

HER4 = HER4 (Homo sapiens, UniProt Q15303); settings: TBID 1 μM, 125 kinase panel, read-out: % activity of the enzyme
Source text: as §1, §2

CK1 = CK1 (Homo sapiens, UniProt P48730); settings: TBID 1 μM, 125 kinase panel, read-out: % activity of the enzyme
Source text: as §1, §2

CDK2-Cyclin A = CDK2-Cyclin A (Homo sapiens, UniProt P24941); settings: TBID 1 μM, 125 kinase panel, read-out: % activity of the enzyme
Source text: as §1, §2

p38g MAPK = p38g MAPK (Homo sapiens, UniProt P53778); settings: TBID 1 μM, 125 kinase panel, read-out: % activity of the enzyme
Chain of p38g MAPK (P53778 whole entry): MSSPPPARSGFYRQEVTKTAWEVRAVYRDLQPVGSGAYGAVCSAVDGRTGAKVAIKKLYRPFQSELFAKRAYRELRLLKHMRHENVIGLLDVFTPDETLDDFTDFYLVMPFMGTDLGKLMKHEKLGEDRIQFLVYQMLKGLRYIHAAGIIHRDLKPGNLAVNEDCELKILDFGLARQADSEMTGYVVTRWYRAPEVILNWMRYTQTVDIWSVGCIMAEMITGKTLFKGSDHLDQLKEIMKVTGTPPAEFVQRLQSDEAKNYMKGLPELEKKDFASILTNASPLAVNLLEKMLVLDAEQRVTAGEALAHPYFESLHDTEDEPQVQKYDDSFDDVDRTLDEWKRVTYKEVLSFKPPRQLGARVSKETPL
Source text: as §1, §2

PKD1 = PKD1 (Homo sapiens, UniProt Q15139); settings: TBID 1 μM, 125 kinase panel, read-out: % activity of the enzyme
Source text: as §1, §2

GCK = GCK (Homo sapiens, UniProt Q12851); settings: TBID 1 μM, 125 kinase panel, read-out: % activity of the enzyme
Source text: as §1, §2

PRAK = PRAK (Homo sapiens, UniProt Q8IW41); settings: TBID 1 μM, 125 kinase panel, read-out: % activity of the enzyme
Source text: as §1, §2

PLK1 = PLK1 (Homo sapiens, UniProt P53350); settings: TBID 1 μM, 125 kinase panel, read-out: % activity of the enzyme
Source text: as §1, §2

DAPK1 = DAPK1 (Homo sapiens, UniProt P53355); settings: TBID 1 μM, 125 kinase panel, read-out: % activity of the enzyme
Source text: as §1, §2

ZAP70 = ZAP70 (Homo sapiens, UniProt P43403); settings: TBID 1 μM, 125 kinase panel, read-out: % activity of the enzyme
Source text: as §1, §2

PRK2 = PRK2 (Homo sapiens, UniProt Q16513); settings: TBID 1 μM, 125 kinase panel, read-out: % activity of the enzyme
Source text: as §1, §2

BRSK1 = BRSK1 (Homo sapiens, UniProt Q8TDC3); settings: TBID 1 μM, 125 kinase panel, read-out: % activity of the enzyme
Source text: as §1, §2

PKCγ = PKCγ (Homo sapiens, UniProt P05129); settings: TBID 1 μM, 125 kinase panel, read-out: % activity of the enzyme
Source text: as §1, §2

HIPK1 = HIPK1 (Homo sapiens, UniProt Q86Z02); settings: TBID 1 μM, 125 kinase panel, read-out: % activity of the enzyme
Chain of HIPK1 (Q86Z02 whole entry): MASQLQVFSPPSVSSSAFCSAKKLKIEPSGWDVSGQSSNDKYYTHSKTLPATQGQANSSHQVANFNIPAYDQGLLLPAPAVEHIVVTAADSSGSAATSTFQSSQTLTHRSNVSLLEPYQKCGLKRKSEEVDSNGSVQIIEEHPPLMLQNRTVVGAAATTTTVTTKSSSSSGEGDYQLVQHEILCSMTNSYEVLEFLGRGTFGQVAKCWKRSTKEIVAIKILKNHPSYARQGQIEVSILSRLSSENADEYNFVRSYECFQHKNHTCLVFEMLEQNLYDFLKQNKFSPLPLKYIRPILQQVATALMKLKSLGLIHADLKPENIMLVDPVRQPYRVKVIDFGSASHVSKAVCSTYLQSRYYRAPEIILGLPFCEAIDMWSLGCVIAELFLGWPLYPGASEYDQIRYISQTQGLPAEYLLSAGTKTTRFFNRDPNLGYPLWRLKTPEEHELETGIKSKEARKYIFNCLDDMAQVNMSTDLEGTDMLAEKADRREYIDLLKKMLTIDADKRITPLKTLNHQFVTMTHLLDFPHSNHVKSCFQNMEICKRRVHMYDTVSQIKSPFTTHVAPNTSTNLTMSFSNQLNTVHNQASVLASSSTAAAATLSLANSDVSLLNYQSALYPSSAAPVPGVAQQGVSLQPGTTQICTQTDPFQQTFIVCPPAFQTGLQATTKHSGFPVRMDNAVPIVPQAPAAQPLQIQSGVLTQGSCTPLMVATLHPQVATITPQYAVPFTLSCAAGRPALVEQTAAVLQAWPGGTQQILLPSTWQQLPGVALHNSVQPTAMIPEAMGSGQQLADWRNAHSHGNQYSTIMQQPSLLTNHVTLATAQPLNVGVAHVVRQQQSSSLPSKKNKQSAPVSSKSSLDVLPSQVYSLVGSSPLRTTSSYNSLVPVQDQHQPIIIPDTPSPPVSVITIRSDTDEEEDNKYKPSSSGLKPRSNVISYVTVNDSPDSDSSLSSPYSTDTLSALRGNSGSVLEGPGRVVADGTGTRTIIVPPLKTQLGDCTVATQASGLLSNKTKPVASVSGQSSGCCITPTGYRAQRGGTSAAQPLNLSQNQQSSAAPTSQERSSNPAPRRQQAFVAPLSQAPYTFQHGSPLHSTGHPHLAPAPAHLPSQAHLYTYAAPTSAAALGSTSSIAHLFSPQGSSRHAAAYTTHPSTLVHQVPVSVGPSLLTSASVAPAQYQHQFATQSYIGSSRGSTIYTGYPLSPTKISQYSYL
Source text: as §1, §2

TBK1 = TBK1 (Homo sapiens, UniProt Q9UHD2); settings: TBID 1 μM, 125 kinase panel, read-out: % activity of the enzyme
Chain of TBK1 (Q9UHD2 whole entry): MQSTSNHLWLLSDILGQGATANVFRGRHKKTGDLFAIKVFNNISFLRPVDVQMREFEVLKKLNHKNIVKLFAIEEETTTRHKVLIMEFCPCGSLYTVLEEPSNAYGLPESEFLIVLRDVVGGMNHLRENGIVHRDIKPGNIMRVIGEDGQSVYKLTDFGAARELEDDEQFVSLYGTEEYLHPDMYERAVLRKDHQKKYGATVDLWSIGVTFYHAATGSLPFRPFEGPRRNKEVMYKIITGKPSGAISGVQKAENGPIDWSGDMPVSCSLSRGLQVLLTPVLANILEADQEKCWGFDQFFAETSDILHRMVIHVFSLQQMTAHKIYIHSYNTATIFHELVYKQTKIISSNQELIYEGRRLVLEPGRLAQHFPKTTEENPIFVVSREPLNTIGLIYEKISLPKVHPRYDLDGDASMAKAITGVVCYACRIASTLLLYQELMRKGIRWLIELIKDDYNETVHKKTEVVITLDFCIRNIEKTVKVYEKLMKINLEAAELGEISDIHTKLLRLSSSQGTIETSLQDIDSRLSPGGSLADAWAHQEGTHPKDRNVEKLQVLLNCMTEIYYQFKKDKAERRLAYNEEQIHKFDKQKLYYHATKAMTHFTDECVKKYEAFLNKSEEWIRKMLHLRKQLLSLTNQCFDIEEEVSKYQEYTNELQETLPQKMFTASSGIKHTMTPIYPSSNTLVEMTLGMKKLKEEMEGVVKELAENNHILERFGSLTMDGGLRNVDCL
Source text: as §1, §2

NEK6 = NEK6 (Homo sapiens, UniProt Q9HC98); settings: TBID 1 μM, 125 kinase panel, read-out: % activity of the enzyme
Source text: as §1, §2

Aurora A = Aurora A (Homo sapiens, UniProt O14965); settings: TBID 1 μM, 125 kinase panel, read-out: % activity of the enzyme
Source text: as §1, §2

DYRK3 = DYRK3 (Homo sapiens, UniProt O43781); settings: TBID 1 μM, 125 kinase panel, read-out: % activity of the enzyme
Source text: as §1, §2

AMPK = settings: TBID 1 μM, 125 kinase panel
Source text: as §1, §2

PKCa = PKCa (Homo sapiens, UniProt P17252); settings: TBID 1 μM, 125 kinase panel, read-out: % activity of the enzyme
Source text: as §1, §2

PAK2 = PAK2 (Homo sapiens, UniProt Q13177); settings: TBID 1 μM, 125 kinase panel, read-out: % activity of the enzyme
Source text: as §1, §2

[1] = 10 µM TBID, panel of 76 protein kinases, read-out: residual activity
[2] = TBID 1 μM, 125 kinase panel, read-out: % activity of the enzyme

Q: For `O=C1c2c(Br)c(Br)c(Br)c(Br)c2C(=O)N1c1ncc[nH]1` [TBID, 4,5,6,7-Tetrabromo-2-(1H-imidazol-2-yl)isoindoline-1,3-dione], which activity at 1 µM (PAK5) is on record?
A: Its activity at 1 µM is 105%.

Q: What about the activity at 1 µM (MPSK1) of the same compound?
A: The activity at 1 µM was 93%.

Q: What about the activity at 1 µM (MLK1) of the same compound?
A: The activity at 1 µM was 83%.

Q: And the activity at 1 µM (FGF-R1)?
A: The activity at 1 µM was 104%.

Q: And the activity at 1 µM (MAPKAP-K3)?
A: The activity at 1 µM was 98%.

Q: And the activity at 1 µM (MELK)?
A: Its activity at 1 µM is 110%.

Q: And the activity at 1 µM (YES1)?
A: Its activity at 1 µM is 110%.

Q: And the activity at 1 µM (Src)?
A: Its activity at 1 µM is 83%.

Q: And the activity at 1 µM (MEKK1)?
A: Its activity at 1 µM is 106%.

Q: What about the activity at 1 µM (GSK3b) of the same compound?
A: Its activity at 1 µM is 94%.

Q: And the activity at 1 µM (JNK1)?
A: Its activity at 1 µM is 106%.

Q: What about the remaining activity at 10 µM (CAMKKb; [1]) of the same compound?
A: The remaining activity at 10 µM was 34%.

Q: What about the activity at 1 µM (CAMKKb; [2]) of the same compound?
A: The activity at 1 µM was 75%.

Q: And the activity at 1 µM (ABL)?
A: Its activity at 1 µM is 99%.

Q: And the activity at 1 µM (MARK4)?
A: The activity at 1 µM was 95%.

Q: What about the activity at 1 µM (SRPK1) of the same compound?
A: The activity at 1 µM was 77%.

Q: What about the activity at 1 µM (OSR1) of the same compound?
A: The activity at 1 µM was 103%.

Q: And the activity at 1 µM (EPH-A2)?
A: The activity at 1 µM was 89%.

Q: What about the activity at 1 µM (PDK1) of the same compound?
A: Its activity at 1 µM is 97%.

Q: What about the activity at 1 µM (VEG-FR) of the same compound?
A: Its activity at 1 µM is 115%.

Q: And the remaining activity at 10 µM (CK2; [1])?
A: Its remaining activity at 10 µM is 48%.

Q: And the activity at 1 µM (CK2; [2])?
A: The activity at 1 µM was 87%.

Q: What about the activity at 1 µM (JAK2) of the same compound?
A: Its activity at 1 µM is 114%.

Q: What about the activity at 1 µM (HER4) of the same compound?
A: The activity at 1 µM was 91%.

Q: What about the activity at 1 µM (CK1) of the same compound?
A: The activity at 1 µM was 105%.

Q: What about the activity at 1 µM (CDK2-Cyclin A) of the same compound?
A: The activity at 1 µM was 98%.

Q: And the activity at 1 µM (p38g MAPK)?
A: Its activity at 1 µM is 101%.

Q: What about the activity at 1 µM (PKD1) of the same compound?
A: The activity at 1 µM was 98%.

Q: What about the activity at 1 µM (GCK) of the same compound?
A: Its activity at 1 µM is 100%.

Q: What about the activity at 1 µM (PRAK) of the same compound?
A: The activity at 1 µM was 95%.

Q: And the activity at 1 µM (PLK1)?
A: The activity at 1 µM was 83%.

Q: What about the activity at 1 µM (DAPK1) of the same compound?
A: The activity at 1 µM was 92%.

Q: And the activity at 1 µM (ZAP70)?
A: Its activity at 1 µM is 91%.

Q: And the activity at 1 µM (PRK2)?
A: Its activity at 1 µM is 96%.

Q: What about the activity at 1 µM (BRSK1) of the same compound?
A: The activity at 1 µM was 110%.

Q: And the activity at 1 µM (PKCγ)?
A: Its activity at 1 µM is 117%.

Q: And the activity at 1 µM (HIPK1)?
A: The activity at 1 µM was 39%.

Q: What about the activity at 1 µM (TBK1) of the same compound?
A: The activity at 1 µM was 108%.

Q: And the activity at 1 µM (NEK6)?
A: Its activity at 1 µM is 105%.

Q: What about the activity at 1 µM (Aurora A) of the same compound?
A: Its activity at 1 µM is 101%.

Q: And the activity at 1 µM (DYRK3)?
A: The activity at 1 µM was 101%.

Q: And the “% activity of the enzyme” value (AMPK)?
A: Its value is 87%.

Q: What about the activity at 1 µM (PKCa) of the same compound?
A: Its activity at 1 µM is 102%.

Q: And the activity at 1 µM (PAK2)?
A: The activity at 1 µM was 97%.
